The text below walks through data of patent US7012077B2, “Substituted cyclohexane derivatives” (Hoffmann-La Roche Inc., priority 2001, dated 2006).

The structures appear in SMILES notation.

As a reminder, the melting point is the temperature, or range, at which the solid turns liquid. `CN(C)C[C@H]1CC[C@H](CCNc2ncc(Br)cn2)CC1` [Example 12, trans-(5-Bromo-pyrimidin-2-yl)-[2-(4-dimethylaminomethyl-cyclohexyl)-ethyl]-amine] yielded a melting point of 108.3 to 109.5 °C.

In the case of `CN(C)CC#C[C@H]1CC[C@H](CN(C)c2ncc(Br)cn2)CC1` [Example 16, trans-(5-Bromo-pyrimidin-2-yl)-[4-(3-dimethylamino-prop-1-ynyl)-cyclohexylmethyl]-methyl-amine], the melting point was 71 to 72 °C.

`CN(C)CC#C[C@H]1CC[C@H](N(C)c2ncc(Br)cn2)CC1` [Example 2, trans-(5-Bromo-pyrimidin-2-yl)-[4-(3-dimethylamino-prop-1-ynyl)-cyclohexyl]-methyl-amine]: the melting point is 83 to 84 °C (dec.).

For `CCCc1cnc(N(C)C[C@H]2CC[C@H](C#CCN(C)C)CC2)nc1` [Example 23.1, trans-[4-(3-Dimethylamino-prop-1-ynyl)-cyclohexylmethyl]-methyl-(5-propyl-pyrimidin-2-yl)-amine], the melting point lay in the range of 49 to 50 °C.
